Reference: ChEMBL document CHEMBL1201862, “PubChem BioAssay data set” (2004)
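Tested at 5 concentrations; 48 h exposure; 96-well plates; endpoints linearly interpolated, else capped at highest concentration. Abbreviation: GI50, concentration required for 50% inhibition of growth.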 The source made the active and inactive calls. Rule as the data show it: active = GI50 up to about 1.1 µM and inactive = higher.

Key:
Assay in all cases: NCI anticancer screen, dose series, 48 h
SN12C = tested on: SN12C
RXF 393 = tested on: RXF 393
COLO 205 = tested on: COLO 205
786-0 = tested on: 786-0
HOP-92 = tested on: HOP-92
UO-31 = tested on: UO-31
ACHN = tested on: ACHN
NCI-H23 = tested on: NCI-H23
OVCAR-4 = tested on: OVCAR-4
OVCAR-5 = tested on: OVCAR-5
M14 = tested on: M14
UACC-257 = tested on: UACC-257
SNB-75 = tested on: SNB-75
A498 = tested on: A498
NCI-H226 = tested on: NCI-H226
SK-MEL-2 = tested on: SK-MEL-2
A549 = tested on: A549
BT-549 = tested on: BT-549
IGROV-1 = tested on: IGROV-1
HL-60 = tested on: HL-60

SMILES	GI50 (SN12C)	GI50 (RXF 393)	GI50 (COLO 205)	GI50 (786-0)	GI50 (HOP-92)	GI50 (UO-31)	GI50 (ACHN)	GI50 (NCI-H23)	GI50 (OVCAR-4)	GI50 (OVCAR-5)	GI50 (M14)	GI50 (UACC-257)	GI50 (SNB-75)	GI50 (A498)	GI50 (NCI-H226)	GI50 (SK-MEL-2)	GI50 (A549)	GI50 (BT-549)	GI50 (IGROV-1)	GI50 (HL-60)
O=C1c2ccccc2C(=O)c2c(NC(=O)c3ccc4c5c(ncnc35)-c3ccccc3C4=O)cccc21	> 100 µM (inactive)	22.6 µM (inactive)	> 100 µM (inactive)	25.1 µM (inactive)	53.3 µM (inactive)	> 100 µM (inactive)	> 100 µM (inactive)	33.4 µM (inactive)	> 100 µM (inactive)	> 100 µM (inactive)	> 100 µM (inactive)	> 100 µM (inactive)	18.7 µM (inactive)	40.6 µM (inactive)	> 100 µM (inactive)	89.3 µM (inactive)	> 100 µM (inactive)	48 µM (inactive)	> 100 µM (inactive)	–
CCOC(=O)C1(NC(=O)OC(C)(C)C)CCc2[nH]oc(=O)c2C1 (stereo not drawn)	> 100 µM (inactive)	–	> 100 µM (inactive)	> 100 µM (inactive)	> 100 µM (inactive)	> 100 µM (inactive)	> 100 µM (inactive)	> 100 µM (inactive)	> 100 µM (inactive)	> 100 µM (inactive)	> 100 µM (inactive)	> 100 µM (inactive)	> 100 µM (inactive)	> 100 µM (inactive)	> 100 µM (inactive)	> 100 µM (inactive)	> 100 µM (inactive)	> 100 µM (inactive)	> 100 µM (inactive)	> 100 µM (inactive)
O=S(=O)(c1ccccc1)n1c(C(O)c2ccncc2)cc2ccccc21 (stereo not drawn)	> 100 µM (inactive)	48.2 µM (inactive)	39.7 µM (inactive)	68.5 µM (inactive)	27 µM (inactive)	17.3 µM (inactive)	37.7 µM (inactive)	44.7 µM (inactive)	31.8 µM (inactive)	> 100 µM (inactive)	32.7 µM (inactive)	10.7 µM (inactive)	34 µM (inactive)	38.7 µM (inactive)	27 µM (inactive)	52.6 µM (inactive)	31.3 µM (inactive)	45.4 µM (inactive)	39.2 µM (inactive)	–
O=C1Cc2c(-c3ccccc3)cc(-c3ccc4ccccc4c3)nc2-c2ccccc2N1	6.22 µM (inactive)	2.9 µM (inactive)	31.9 µM (inactive)	3.18 µM (inactive)	4.05 µM (inactive)	17.3 µM (inactive)	3.72 µM (inactive)	6.4 µM (inactive)	2.9 µM (inactive)	24.7 µM (inactive)	9.2 µM (inactive)	22.3 µM (inactive)	0.307 µM (active)	12.7 µM (inactive)	8.45 µM (inactive)	43.9 µM (inactive)	14.9 µM (inactive)	27.4 µM (inactive)	1.93 µM (inactive)	–
CCOC(=O)c1c(C)cc(=O)n2c1[nH]c1ccccc12	37.4 µM (inactive)	> 100 µM (inactive)	> 100 µM (inactive)	63.5 µM (inactive)	> 100 µM (inactive)	> 100 µM (inactive)	42.5 µM (inactive)	> 100 µM (inactive)	–	> 100 µM (inactive)	> 100 µM (inactive)	> 100 µM (inactive)	–	40.3 µM (inactive)	> 100 µM (inactive)	> 100 µM (inactive)	82.2 µM (inactive)	> 100 µM (inactive)	> 100 µM (inactive)	> 100 µM (inactive)
CCOC(=O)c1nc2cc(F)c(F)cc2nc1NCc1cc(OC)c(OC)c(OC)c1	> 100 µM (inactive)	30.1 µM (inactive)	> 100 µM (inactive)	57.1 µM (inactive)	50.7 µM (inactive)	63.7 µM (inactive)	> 100 µM (inactive)	> 100 µM (inactive)	> 100 µM (inactive)	54.2 µM (inactive)	> 100 µM (inactive)	> 100 µM (inactive)	16.5 µM (inactive)	> 100 µM (inactive)	–	> 100 µM (inactive)	> 100 µM (inactive)	> 100 µM (inactive)	> 100 µM (inactive)	> 100 µM (inactive)
COc1cc2c(cc1OCCCOc1cc3c(cc1OC)C(=O)N1CCC[C@H]1CN3)N=C[C@@H]1CCCN1C2=O	0.189 µM (active)	0.0497 µM (active)	0.108 µM (active)	0.0656 µM (active)	0.145 µM (active)	2.17 µM (inactive)	0.0986 µM (active)	0.158 µM (active)	0.67 µM (active)	0.182 µM (active)	0.0753 µM (active)	0.206 µM (active)	0.179 µM (active)	–	0.0782 µM (active)	0.0977 µM (active)	0.7 µM (active)	0.0802 µM (active)	0.201 µM (active)	0.0291 µM (active)
CC(=O)/C(=C\Nc1c(C)n(C)n(C)c1=O)C(=O)c1ccccc1	> 50 µM (inactive)	> 50 µM (inactive)	> 50 µM (inactive)	> 50 µM (inactive)	26.5 µM (inactive)	> 50 µM (inactive)	> 50 µM (inactive)	> 50 µM (inactive)	> 50 µM (inactive)	> 50 µM (inactive)	> 50 µM (inactive)	> 50 µM (inactive)	–	> 50 µM (inactive)	> 50 µM (inactive)	> 50 µM (inactive)	> 50 µM (inactive)	> 50 µM (inactive)	> 50 µM (inactive)	> 50 µM (inactive)
COC(=O)c1c(O)ccc2c1c1c(n2Cc2ccccc2)C(=O)c2ccccc2C1=O	13.9 µM (inactive)	14.1 µM (inactive)	1.8 µM (inactive)	18.2 µM (inactive)	13 µM (inactive)	10.3 µM (inactive)	12.2 µM (inactive)	15.3 µM (inactive)	12 µM (inactive)	20.9 µM (inactive)	20.4 µM (inactive)	17.6 µM (inactive)	15.6 µM (inactive)	–	18.3 µM (inactive)	14 µM (inactive)	7.76 µM (inactive)	16.6 µM (inactive)	12.6 µM (inactive)	18.3 µM (inactive)
O=C1NC(N2CCOCC2)=N/C1=C\c1cccs1	> 100 µM (inactive)	> 100 µM (inactive)	> 100 µM (inactive)	> 100 µM (inactive)	> 100 µM (inactive)	> 100 µM (inactive)	> 100 µM (inactive)	> 100 µM (inactive)	> 100 µM (inactive)	> 100 µM (inactive)	> 100 µM (inactive)	> 100 µM (inactive)	30.2 µM (inactive)	–	> 100 µM (inactive)	> 100 µM (inactive)	> 100 µM (inactive)	> 100 µM (inactive)	> 100 µM (inactive)	> 100 µM (inactive)
NCC(=O)Nc1ccccc1	> 100 µM (inactive)	> 100 µM (inactive)	–	> 100 µM (inactive)	> 100 µM (inactive)	> 100 µM (inactive)	> 100 µM (inactive)	> 100 µM (inactive)	> 100 µM (inactive)	> 100 µM (inactive)	> 100 µM (inactive)	> 100 µM (inactive)	> 100 µM (inactive)	> 100 µM (inactive)	> 100 µM (inactive)	87.7 µM (inactive)	> 100 µM (inactive)	> 100 µM (inactive)	> 100 µM (inactive)	–
NS(=O)(=O)c1nc(S(=O)(=O)O)c2[nH]cnc2n1	> 100 µM (inactive)	> 100 µM (inactive)	> 100 µM (inactive)	> 100 µM (inactive)	> 100 µM (inactive)	> 100 µM (inactive)	> 100 µM (inactive)	> 100 µM (inactive)	> 100 µM (inactive)	> 100 µM (inactive)	> 100 µM (inactive)	> 100 µM (inactive)	> 100 µM (inactive)	> 100 µM (inactive)	> 100 µM (inactive)	> 100 µM (inactive)	> 100 µM (inactive)	> 100 µM (inactive)	> 100 µM (inactive)	–
COc1ccc2c(c1)CCN1CCCc3ccc(OC)cc3C21 (stereo not drawn)	50 µM (inactive)	41.4 µM (inactive)	44.4 µM (inactive)	49.1 µM (inactive)	63.8 µM (inactive)	22.5 µM (inactive)	> 100 µM (inactive)	68.5 µM (inactive)	> 100 µM (inactive)	89.9 µM (inactive)	24.2 µM (inactive)	73.8 µM (inactive)	16.4 µM (inactive)	84.5 µM (inactive)	38.5 µM (inactive)	52.1 µM (inactive)	75 µM (inactive)	34 µM (inactive)	57.4 µM (inactive)	–
Cc1cc(OCC(=O)N/N=C/C(Br)=C/c2ccccc2)nc(SCC(=O)N/N=C/C(Br)=C/c2ccccc2)n1	> 100 µM (inactive)	49.1 µM (inactive)	39.1 µM (inactive)	34.8 µM (inactive)	24.9 µM (inactive)	> 100 µM (inactive)	> 100 µM (inactive)	> 100 µM (inactive)	42 µM (inactive)	> 100 µM (inactive)	> 100 µM (inactive)	> 100 µM (inactive)	–	> 100 µM (inactive)	–	–	–	> 100 µM (inactive)	52.2 µM (inactive)	> 100 µM (inactive)
CCn1c(=O)c2c3cc(O)ccc3oc2c2ccc(O)cc21	29.2 µM (inactive)	30.1 µM (inactive)	17.5 µM (inactive)	57.7 µM (inactive)	26.2 µM (inactive)	19.3 µM (inactive)	21.3 µM (inactive)	41.3 µM (inactive)	34.8 µM (inactive)	–	31.2 µM (inactive)	76.6 µM (inactive)	22.9 µM (inactive)	18.9 µM (inactive)	37.1 µM (inactive)	–	24.4 µM (inactive)	17.4 µM (inactive)	42.6 µM (inactive)	–
